Molecules are shown by their SMILES. Counter-ions that a name gives are not always drawn.

Usually IC50 stands for the midpoint of a concentration-inhibition curve.

The experiment addresses T1, human TLR8 (Homo sapiens, UniProt Q9NR97).
T1 construct: host or cells: HEK-Blue cells
T1 sequence (Q9NR97 27-1041): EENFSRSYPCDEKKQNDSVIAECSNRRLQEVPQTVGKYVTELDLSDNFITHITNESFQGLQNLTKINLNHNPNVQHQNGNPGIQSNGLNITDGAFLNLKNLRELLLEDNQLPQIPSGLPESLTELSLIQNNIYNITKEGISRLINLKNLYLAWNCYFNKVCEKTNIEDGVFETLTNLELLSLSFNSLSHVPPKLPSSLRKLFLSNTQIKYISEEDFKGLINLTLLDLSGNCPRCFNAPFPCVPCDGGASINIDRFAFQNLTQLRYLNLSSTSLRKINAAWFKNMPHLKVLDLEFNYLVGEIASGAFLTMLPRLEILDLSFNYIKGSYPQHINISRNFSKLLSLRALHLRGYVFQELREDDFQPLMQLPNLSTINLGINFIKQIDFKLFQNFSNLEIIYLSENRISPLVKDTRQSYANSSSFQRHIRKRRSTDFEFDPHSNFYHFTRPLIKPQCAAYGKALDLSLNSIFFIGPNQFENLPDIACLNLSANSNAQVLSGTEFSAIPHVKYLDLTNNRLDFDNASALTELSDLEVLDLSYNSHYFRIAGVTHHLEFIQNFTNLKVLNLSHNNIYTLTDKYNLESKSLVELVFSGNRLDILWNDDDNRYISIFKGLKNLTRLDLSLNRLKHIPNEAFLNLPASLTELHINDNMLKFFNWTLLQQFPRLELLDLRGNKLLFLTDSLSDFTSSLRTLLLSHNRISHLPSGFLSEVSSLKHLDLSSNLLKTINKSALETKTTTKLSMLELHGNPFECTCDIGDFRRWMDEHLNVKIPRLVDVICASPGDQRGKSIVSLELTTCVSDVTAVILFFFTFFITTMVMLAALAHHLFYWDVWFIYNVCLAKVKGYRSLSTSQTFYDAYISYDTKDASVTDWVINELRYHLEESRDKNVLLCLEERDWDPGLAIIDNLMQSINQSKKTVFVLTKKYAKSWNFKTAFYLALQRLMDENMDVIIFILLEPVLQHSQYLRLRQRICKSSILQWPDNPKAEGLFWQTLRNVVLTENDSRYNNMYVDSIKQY
Nature of the experiment: TLR8 inhibition reporter assay (HEK-Blue cells, SEAP reporter, R848 stimulation). In kind it is cell-based. Conditions: HEK-Blue cells overexpressing human TLR8, R848 15.9 μM. How it is done:
TLR7/8/9 Inhibition Reporter Assays
Briefly, cells are seeded into Greiner 384 well plates (15000 cells per well for TLR7, 20,000 for TLR8 and 25,000 for TLR9) and then treated with test compounds in DMSO to yield a final dose response concentration range of 0.05 nM-50 μM. […] After a 22 hour incubation at 37° C., 5% CO2, SEAP levels are determined with the addition of HEK-Blue™ Detection reagent (Invivogen), a cell culture medium that allows for detection of SEAP, according to manufacturer's specifications. The percent inhibition is determined as the % reduction in the HEK-Blue signal present in wells treated with agonist plus DMSO alone compared to wells treated with a known inhibitor.
In general terms: Reporter assays use an easily measured gene product as a stand-in for the process of interest.
Compound `CCc1c(-c2ccc(OC)c(OC)c2)[nH]c2ccc(C3CCN(C4CCN(Cc5c(C)noc5C)CC4)CC3)cc12` [Example 138, 4-((4-(2-(3,4-dimethoxyphenyl)-3-ethyl-1H-indol-5-yl)-[1,4′-bipiperidin]-1′-yl)methyl)-3,5-dimethylisoxazole] returned an IC50 of 268 nM.
`CCc1c(-c2ccc(OC)c(OC)c2)[nH]c2ccc(C3CCN(C4CCN(C(C)C)CC4)CC3)cc12` [Example 151, 2-(3,4-dimethoxyphenyl)-3-ethyl-5-(1′-isopropyl-[1,4′-bipiperidin]-4-yl)-1H-indole] registered an IC50 of 403 nM.
The result for `CCc1c(-c2ccc(OC)c(OC)c2)[nH]c2ccc(C3CCN(C4CCN(Cc5c[nH]cn5)CC4)CC3)cc12` [Example 125, 5-(1′-((1H-imidazol-4-yl)methyl)-[1,4′-bipiperidin]-4-yl)-2-(3,4-dimethoxyphenyl)-3-ethyl-1H-indole] reads 150 nM; that for `CCc1c(-c2ccc(OC)c(OC)c2)[nH]c2ccc(C3CCN(C4CCN(Cc5ccc(-c6ccccc6)o5)CC4)CC3)cc12` [Example 143, 2-(3,4-dimethoxyphenyl)-3-ethyl-5-(1′-((5-phenylfuran-2-yl)methyl)-[1,4′-bipiperidin]-4-yl)-1H-indole], 706 nM; that for `CCc1c(-c2ccc(OC)c(OC)c2)[nH]c2ccc(C3CCN(C4CCN(Cc5ccc(-c6ccccc6)s5)CC4)CC3)cc12` [Example 141, 2-(3,4-dimethoxyphenyl)-3-ethyl-5-(1′-((5-phenylthiophen-2-yl)methyl)-[1,4′-bipiperidin]-4-yl)-1H-indole], 9780 nM.
`CCc1c(-c2ccc(OC)c(OC)c2)[nH]c2ccc(C3CCN(C(=O)CN4CCCC(C(=O)N(CC)CC)C4)CC3)cc12` (centres unmarked) [Example 168, 1-(2-(4-(2-(3,4-dimethoxyphenyl)-3-ethyl-1H-indol-5-yl)piperidin-1-yl)-2-oxoethyl)-N,N-diethylpiperidine-3-carboxamide] registered an IC50 of 41 nM.
Consider `COc1ccc(-c2[nH]c3ccc(C4CCN(C5CCNCC5)CC4)cc3c2C(C)C)cc1OC` [Example 197, 5-([1,4′-bipiperidin]-4-yl)-2-(3,4-dimethoxyphenyl)-3-isopropyl-1H-indole dihydrochloride], for which 25 nM corresponded to half-maximal inhibition (IC50).
The result for `CCN(CC)C(=O)CN(C)CC(=O)N1CCC(c2ccc3[nH]c(-c4ccc(OC)c(OC)c4)c(C(C)C)c3c2)CC1` [Example 203, 2-((2-(4-(2-(3,4-dimethoxyphenyl)-3-isopropyl-1H-indol-5-yl)piperidin-1-yl)-2-oxoethyl)(methyl)amino)-N,N-diethylacetamide, TFA] reads 286 nM; that for `CCc1c(-c2ccc(OC)c(OC)c2)[nH]c2ccc(C3CCN(C4CCN(Cc5sccc5C)CC4)CC3)cc12` [Example 139, 2-(3,4-dimethoxyphenyl)-3-ethyl-5-(1′-((3-methylthiophen-2-yl)methyl)-[1,4′-bipiperidin]-4-yl)-1H-indole], 206 nM.
For the compound `CCc1c(-c2ccc(OC)c(OC)c2)[nH]c2ccc(C3CCN(C4CCN(C5CCCC5)CC4)CC3)cc12` [Example 152, 5-(1′-cyclopentyl-[1,4′-bipiperidin]-4-yl)-2-(3,4-dimethoxyphenyl)-3-ethyl-1H-indole], the IC50 was determined as 33 nM.
For the compound `CCc1c(-c2ccc(OC)c(OC)c2)[nH]c2ccc(C3CCN(C(=O)CN4CCCC(C(=O)N(CC)CC)C4)CC3)cc12` (single isomer, unassigned) [Example 178, 1-(2-(4-(2-(3,4-dimethoxyphenyl)-3-ethyl-1H-indol-5-yl)piperidin-1-yl)-2-oxoethyl)-N,N-diethylpiperidine-3-carboxamide], inhibition was half-maximal at 131 nM (IC50).
`CNCCN1CCC(c2ccc3c(c2)c(C)c(-c2ccc(OC)c(OC)c2)n3C)CC1` [Example 114, 2-(4-(2-(3,4-dimethoxyphenyl)-1,3-dimethyl-1H-indol-5-yl)piperidin-1-yl)-N-methylethan-1-amine]: half-maximal inhibition (IC50) required 958 nM.
Then `COc1ccc(-c2[nH]c3ccc(C4CCN(C(=O)CNCC#N)CC4)cc3c2C(C)C)cc1OC` [Example 214, 2-((2-(4-(2-(3,4-dimethoxyphenyl)-3-isopropyl-1H-indol-5-yl)piperidin-1-yl)-2-oxoethyl)amino) acetonitrile], with 256 nM; and `COc1ccc(-c2[nH]c3ccc(C4CCN(C(=O)CNCC(C)O)CC4)cc3c2C(C)C)cc1OC` (centres unmarked) [Example 210, 1-(4-(2-(3,4-dimethoxyphenyl)-3-isopropyl-1H-indol-5-yl)piperidin-1-yl)-2-((2-hydroxypropyl)amino)ethan-1-one], with 25 nM; and `CCc1c(-c2ccc(OC)c(OC)c2)[nH]c2ccc(C3CCN(C(=O)C4CCCNC4)CC3)cc12` (centres unmarked) [Example 184, (4-(2-(3,4-dimethoxyphenyl)-3-ethyl-1H-indol-5-yl)piperidin-1-yl)(piperidin-3-yl)methanone], with 136 nM.
In turn, `COc1ccc(-c2[nH]c3ccc(C4CCN(C(=O)CNCCO)CC4)cc3c2C(C)C)cc1OC` [Example 212, 1-(4-(2-(3,4-dimethoxyphenyl)-3-isopropyl-1H-indol-5-yl)piperidin-1-yl)-2-((2-hydroxyethyl)amino)ethan-1-one] registered an IC50 of 20 nM.
The result for `CCc1c(-c2ccc(OC)c(OC)c2)[nH]c2ccc(C3CCN(C(=O)CN4CC[C@@H](O)C4)CC3)cc12` [Example 173, (R)-1-(4-(2-(3,4-dimethoxyphenyl)-3-ethyl-1H-indol-5-yl)piperidin-1-yl)-2-(3-hydroxypyrrolidin-1-yl)ethan-1-one] reads 25 nM; that for `CCc1c(-c2ccc(OC)c(OC)c2)[nH]c2ccc(C3CCN(C4CCN(Cc5csnn5)CC4)CC3)cc12` [Example 130, 4-((4-(2-(3,4-dimethoxyphenyl)-3-ethyl-1H-indol-5-yl)-[1,4′-bipiperidin]-1′-yl)methyl)-1,2,3-thiadiazole], 792 nM.
The compound `CCc1c(-c2ccc(OC)c(OC)c2)[nH]c2ccc(C3CCN(C4CCN(Cc5ccccc5)CC4)CC3)cc12` [Example 147, 5-(1′-benzyl-[1,4′-bipiperidin]-4-yl)-2-(3,4-dimethoxyphenyl)-3-ethyl-1H-indole] came in with an IC50 of 101 nM.
`CCc1c(-c2ccc(OC)c(OC)c2)[nH]c2cc(C)c(C3CCN(CCNC)CC3)cc12` [Example 188, 2-(4-(2-(3,4-dimethoxyphenyl)-3-ethyl-6-methyl-1H-indol-5-yl)piperidin-1-yl)-N-methylethanamine-di-trifluoroacetic acid]: it took 213 nM to reach half-maximal inhibition (IC50).
`CCc1c(-c2ccc(OC)c(OC)c2)[nH]c2ccc(C3CCN(C4CCN(Cc5coc(C)n5)CC4)CC3)cc12` [Example 126, 4-((4-(2-(3,4-dimethoxyphenyl)-3-ethyl-1H-indol-5-yl)-[1,4′-bipiperidin]-1′-yl)methyl)-2-methyloxazole] had an IC50 of 114 nM.
`CCc1c(-c2ccc(OC)c(OC)c2)[nH]c2ccc(C3CCN(CCNC)CC3)cc12` [Example 155, 2-(4-(2-(3,4-dimethoxyphenyl)-3-ethyl-1H-indol-5-yl)piperidin-1-yl)-N-methylethanamine di-trifluoroacetic acid] came in with a half-maximal inhibitory concentration (IC50) of 29 nM.
Then `COc1ccc(-c2[nH]c3ccc(C4CCN(C5CCN(CC(C)C)CC5)CC4)cc3c2Cl)cc1OC` [Example 120, 3-chloro-2-(3,4-dimethoxyphenyl)-5-(1′-isobutyl-[1,4′-bipiperidin]-4-yl)-1H-indole di-trifluoroacetic acid], with 1260 nM; and `COc1ccc(-c2[nH]c3cc(C)c(C4CCNCC4)cc3c2C(C)C)cc1OC` [Example 205, 2-(3,4-dimethoxyphenyl)-3-isopropyl-6-methyl-5-(piperidin-4-yl)-1H-indole], with 6870 nM; and `CNCCN1CCC(c2ccc3[nH]c(-c4ccc(OC)c(OC)c4)c(CC(C)C)c3c2)CC1` [Example 116, trifluoroacetic acid], with 95 nM.
As for `COc1ccc(-c2[nH]c3ccc(C4CCN(C5CCN(C(C)C)CC5)CC4)cc3c2C(C)C)cc1OC` [Example 201, 2-(3,4-dimethoxyphenyl)-3-isopropyl-5-(1′-isopropyl-[1,4′-bipiperidin]-4-yl)-1H-indole], the 50% inhibitory concentration (IC50) is 17 nM.

Source of the values: patent US11180474B2 (BRISTOL-MYERS SQUIBB COMPANY, priority 2016, dated 2021).
